Data: patent US9499553B2 (CHUGAI SEIYAKU KABUSHIKI KAISHA, priority 2013, dated 2016)

These compounds were tested against T1, human NaPi-IIb (Homo sapiens, UniProt O95436) (assay: Inhibitory effect on 33PO4 uptake into human NaPi-IIb-expressing CHO cells). Conditions: read-out: IC50.
T1 construct: expressed in transfected cells
T1 sequence (O95436 1-690): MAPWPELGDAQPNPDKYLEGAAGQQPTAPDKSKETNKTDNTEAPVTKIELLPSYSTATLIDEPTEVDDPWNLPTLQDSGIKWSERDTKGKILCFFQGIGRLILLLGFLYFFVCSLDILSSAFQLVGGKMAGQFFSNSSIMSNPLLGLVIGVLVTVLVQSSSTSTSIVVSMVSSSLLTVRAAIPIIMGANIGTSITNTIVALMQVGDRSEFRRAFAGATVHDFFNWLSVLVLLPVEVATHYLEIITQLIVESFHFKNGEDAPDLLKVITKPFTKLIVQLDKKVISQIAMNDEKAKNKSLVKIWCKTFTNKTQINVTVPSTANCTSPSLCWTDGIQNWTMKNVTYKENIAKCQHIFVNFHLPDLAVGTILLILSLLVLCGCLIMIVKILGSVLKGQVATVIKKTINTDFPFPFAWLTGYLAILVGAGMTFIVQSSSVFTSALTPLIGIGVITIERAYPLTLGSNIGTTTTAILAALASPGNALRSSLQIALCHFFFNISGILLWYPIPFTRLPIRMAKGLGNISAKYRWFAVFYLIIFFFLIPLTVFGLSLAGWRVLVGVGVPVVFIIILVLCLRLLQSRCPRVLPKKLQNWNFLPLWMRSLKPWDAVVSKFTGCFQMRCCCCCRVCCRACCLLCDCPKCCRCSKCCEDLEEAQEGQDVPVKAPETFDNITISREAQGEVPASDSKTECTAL
Assay type: cell-based
In short: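 Uptake of ³³PO4 was measured by scintillation counting after ice-cold buffer A washes. Cells were CHO stably expressing human NaPi-IIb, seeded overnight, and exposed to ³³PO4 in buffer A at room temperature.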

Row | Structure (SMILES) | IC50
1 | CN1N(Cc2ccc(OCCN3CCOCC3)c(F)c2F)C(=O)C(C(=O)Nc2ccc(C(F)(F)F)cc2-c2ncnc(C(F)(F)F)c2Cl)=C(O)C12CCC2 [Example 284] | 7.8 µM
2 | Cc1c(-c2cc(C(F)(F)F)ccc2NC(=O)C2=C(O)C3(CCC3)N(C)N(Cc3ccc(OCCN4CCOCC4)c(F)c3F)C2=O)ncnc1C(F)(F)F [Example 285] | 8.5 µM
3 | CN1N(Cc2ccc(OCCN3CCOCC3)c(F)c2F)C(=O)C(C(=O)Nc2ccc(Cl)cc2-c2cc(C(F)(F)F)ncn2)=C(O)C12CCCC2 [Example 286] | 15.8 µM
4 | CN1N(Cc2ccc(OCCN3CCOCC3)c(F)c2F)C(=O)C(C(=O)Nc2ccc(C(F)(F)F)cc2-c2ccc(C(F)(F)F)nc2)=C(O)C12CCCC2 [Example 287] | 8 µM
5 | CN1N(Cc2ccc(OCCN3CCOCC3)c(F)c2F)C(=O)C(C(=O)Nc2ccc(Cl)cc2-c2ccc(C(F)(F)F)nc2)=C(O)C12CCCC2 [Example 288] | 11 µM
6 | CSc1ccc(-c2cc(C(F)(F)F)ccc2NC(=O)C2=C(O)C3(CCCC3)N(C)N(Cc3ccc(OCCN4CCOCC4)c(F)c3F)C2=O)cn1 [Example 289] | 16.3 µM
7 | Cc1c(-c2cc(C(F)(F)F)ccc2NC(=O)C2=C(O)C3(CCCC3)N(C)N(Cc3ccc(OCCN4CCOCC4)c(F)c3F)C2=O)ncnc1C(F)(F)F [Example 290] | 7 µM
8 | CCC1(CC)C(O)=C(C(=O)Nc2ccc(C(F)(F)F)cc2-c2cc(C(F)(F)F)ncn2)C(=O)N(Cc2ccc(OCCN3CCOCC3)c(F)c2F)N1C [Example 291] | 14.7 µM
9 | CCC1(CC)C(O)=C(C(=O)Nc2ccc(Cl)cc2-c2cc(C(F)(F)F)ncn2)C(=O)N(Cc2ccc(OCCN3CCOCC3)c(F)c2F)N1C [Example 292] | 18.4 µM
10 | CCC1(CC)C(O)=C(C(=O)Nc2ccc(C(F)(F)F)cc2-c2ccc(C(F)(F)F)nc2)C(=O)N(Cc2ccc(OCCN3CCOCC3)c(F)c2F)N1C [Example 293] | 10.7 µM
11 | CCC1(CC)C(O)=C(C(=O)Nc2ccc(Cl)cc2-c2ccc(C(F)(F)F)nc2)C(=O)N(Cc2ccc(OCCN3CCOCC3)c(F)c2F)N1C [Example 294] | 13.4 µM
12 | CN1N(Cc2ccc(OCCN3CCOCC3)c(F)c2F)C(=O)C(C(=O)Nc2ccc(C(F)(F)F)cc2-c2cc(C(F)(F)F)ncn2)=C(O)C12CCCCC2 [Example 295] | 17 µM
13 | Cc1c(-c2cc(C(F)(F)F)ccc2NC(=O)C2=C(O)C3(CCCCC3)N(C)N(Cc3ccc(OCCN4CCOCC4)c(F)c3F)C2=O)ncnc1C(F)(F)F [Example 296] | 10 µM
14 | CN1N(Cc2ccc(OCCN3CCOCC3)c(F)c2F)C(=O)C(C(=O)Nc2ccc(Cl)cc2-c2cc(C(F)(F)F)ncn2)=C(O)C12CCCCC2 [Example 297] | 18.3 µM
15 | CN1N(Cc2ccc(OCCN3CCOCC3)c(F)c2F)C(=O)C(C(=O)Nc2ccc(Br)c(C(F)(F)F)n2)=C(O)C12CCCCC2 [Example 298] | > 30 µM
16 | CC1(C)C(O)=C(C(=O)Nc2ccc(C(F)(F)F)cc2-c2cc(C(F)(F)F)ncn2)C(=O)N(Cc2cccc(F)c2F)N1c1ccccc1 [Example 299] | 18.8 µM
17 | CN1N(Cc2cccc(F)c2F)C(=O)C(C(=O)Nc2ccc(C(F)(F)F)cc2-c2cc(C(F)(F)F)ncn2)=C(O)C12CCC2 [Example 300] | 9.3 µM
18 | CN1N(Cc2cccc(F)c2F)C(=O)C(C(=O)Nc2ccc(C(F)(F)F)cc2-c2ccc(C(F)(F)F)nc2)=C(O)C12CCC2 [Example 301] | 2.6 µM

Row | Structure (SMILES) | IC50
19 | COc1cc(-c2cc(C(F)(F)F)ccc2NC(=O)C2=C(O)C(C)(C)N(C)N(Cc3cccc(F)c3F)C2=O)cnc1C#N [Example 302] | 7.8 µM
20 | CN1N(Cc2cccc(F)c2F)C(=O)C(C(=O)Nc2ccc(C(F)(F)F)cc2-c2cc(C#N)ncn2)=C(O)C1(C)C [Example 303] | 16 µM
21 | CN1N(Cc2cccc(F)c2F)C(=O)C(C(=O)Nc2ccc(C(F)(F)F)nc2-c2ccc(C(F)(F)F)nc2)=C(O)C1(C)C [Example 304] | 3.5 µM
22 | CN1N(Cc2cccc(F)c2F)C(=O)C(C(=O)Nc2ccc(C(F)(F)F)cc2-c2cncc(C(F)(F)F)c2)=C(O)C1(C)C [Example 305] | 5.9 µM
23 | CN1N(Cc2cccc(F)c2F)C(=O)C(C(=O)Nc2ccc(C(F)(F)F)nc2-c2cncc(C(F)(F)F)c2)=C(O)C1(C)C [Example 306] | 8.4 µM
24 | CN1N(Cc2cccc(F)c2F)C(=O)C(C(=O)Nc2cc(C(F)(F)F)ccc2-c2ccc(C(F)(F)F)nc2)=C(O)C1(C)C [Example 307] | 4.6 µM
25 | CN1N(Cc2cccc(F)c2F)C(=O)C(C(=O)Nc2ccc(C(F)(F)F)cc2-c2ccc(S(=O)(=O)N(C)C)cc2)=C(O)C1(C)C [Example 308] | 12.6 µM
26 | CN1N(Cc2cccc(F)c2F)C(=O)C(C(=O)Nc2ccc(Cl)cc2-c2ccc(C(F)(F)F)nc2)=C(O)C1(C)C [Example 309] | 6.5 µM
27 | CSc1ccc(-c2cc(C(F)(F)F)ccc2NC(=O)C2=C(O)C(C)(C)N(C)N(Cc3cccc(F)c3F)C2=O)cn1 [Example 310] | 4.7 µM
28 | Cc1c(C#N)ncnc1-c1cc(C(F)(F)F)ccc1NC(=O)C1=C(O)C(C)(C)N(C)N(Cc2cccc(F)c2F)C1=O [Example 311] | 8.2 µM
29 | CN1N(Cc2cccc(F)c2F)C(=O)C(C(=O)Nc2ccc(C(F)(F)F)cc2-c2ncnc(C#N)c2Cl)=C(O)C1(C)C [Example 312] | 6.3 µM
30 | CN1N(Cc2ccc(OCCN3CCOCC3)c(F)c2F)C(=O)C(C(=O)Nc2ccc(C(F)(F)F)cc2-c2cc(C(F)(F)F)ncn2)=C(O)C1(C)C [Example 313, 2-[[2,3-Difluoro-4-(2-morpholin-4-ylethoxy)phenyl]methyl]-5-hydroxy-1,6,6-trimethyl-3-oxo-N-[4-(trifluoromethyl)-2-[6-(trifluoromethyl)pyrimidin-4-yl]phenyl]pyridazine-4-carboxamide] | 18.3 µM
31 | CN1N(Cc2ccc(OCCN3CCOCC3)c(F)c2F)C(=O)C(C(=O)Nc2ccc(C(F)(F)F)cc2-c2ccc(C(F)(F)F)nc2)=C(O)C1(C)C [Example 314, 2-[[2,3-Difluoro-4-(2-morpholin-4-ylethoxy)phenyl]methyl]-5-hydroxy-1,6,6-trimethyl-3-oxo-N-[4-(trifluoromethyl)-2-[6-(trifluoromethyl)pyridin-3-yl]phenyl]pyridazine-4-carboxamide] | 11.8 µM
32 | CN1N(Cc2ccc(C#CCN3CCOCC3)c(F)c2F)C(=O)C(C(=O)Nc2ccc(C(F)(F)F)cc2-c2cc(C(F)(F)F)ncn2)=C(O)C1(C)C [Example 315] | 9.8 µM
33 | CN1N(Cc2ccc(C#CCN3CCOCC3)c(F)c2F)C(=O)C(C(=O)Nc2ccc(Cl)cc2-c2cc(C(F)(F)F)ncn2)=C(O)C1(C)C [Example 316] | 14.2 µM
34 | CN1N(Cc2ccc(OCCN3CCOCC3)c(F)c2F)C(=O)C(C(=O)Nc2ccc(C(F)(F)F)cc2-c2cc(C(F)(F)F)ncn2)=C(O)C12CCC2 [Example 317, 6-[[2,3-Difluoro-4-(2-morpholin-4-ylethoxy)phenyl]methyl]-9-hydroxy-5-methyl-7-oxo-N-[4-(trifluoromethyl)-2-[6-(trifluoromethyl)pyrimidin-4-yl]phenyl]-5,6-diazaspiro[3.5] non-8-ene-8-carboxamide] | 9.6 µM
35 | CN1N(Cc2ccc(OCCN3CCOCC3)c(F)c2F)C(=O)C(C(=O)Nc2ccc(C(F)(F)F)cc2-c2cc(C(F)(F)F)ncn2)=C(O)C12CCCC2 [Example 318, 7-[[2,3-Difluoro-4-(2-morpholin-4-ylethoxy)phenyl]methyl]-10-hydroxy-6-methyl-8-oxo-N-[4-(trifluoromethyl)-2-[6-(trifluoromethyl)pyrimidin-4-yl]phenyl]-6,7-diazaspiro[4.5]dec-9-ene-9-carboxamide] | 8.6 µM
